The record followed here is a melting point compilation (Tetko et al.; mined from patent text by program, amines drawn as free bases though some values may be those of a salt).

As a reminder, the melting point is the temperature of the solid-liquid transition. `CSc1ccc(Oc2ccc([N+](=O)[O-])cc2)c(C)c1` returned a melting point of 81.6 to 84.4 °C.

The compound `COc1ccc(-c2[nH]nc3c2C(=O)c2c(NC(C)=O)cccc2-3)cc1` registered a melting point of 174 to 175 °C.

As for `CNC(=O)[C@@H](C[C@H](O)[C@H](CC1CCCCC1)NC(=O)[C@H](Cc1cscn1)NC(=O)[C@@H](CC(=O)N1CCOCC1)Cc1ccccc1)C(C)C`, the melting point was in the range of 83 to 86 °C.

Consider `CNC(=O)C1(CCCCCCCCCCCCC2(C(=O)NS(C)(=O)=O)CC2)CC1`, for which the melting point lay in the range of 111 to 112 °C.

The compound `CCOCc1nc2c(N)nc3cc(Br)cnc3c2n1CC1(O)CCCC1` gave a melting point of 166 to 168 °C.

`CCOC(=O)C1=C(COCc2nnnn2CC(N)=O)NC(C)=C(C(=O)OC)C1c1ccccc1Cl` (centres undefined): the melting point was in the range of 97 to 100 °C.

Take `CSc1nn(C(=O)Oc2ccccc2)c(=O)n1N`: the melting point is 161 °C.

In the case of `O=C(NC(=O)c1cccnc1Cl)Nc1cc(Cl)c(OC(F)(F)C(Cl)Cl)c(Cl)c1`, the melting point fell in the range of 189 to 192 °C.

`CCOC(=O)COc1ccc2c(c1)C(=O)CC1(CCCCC1)O2` registered a melting point of 72 to 73 °C.

Compound `O=c1[nH]c2cc(C(F)(F)F)ccc2n1C1CCNCC1` had a melting point of 198 °C.

For `CCC(=O)c1cnc2c(O)cccc2c1Nc1ccc(F)cc1C`, the melting point lay within 143 to 146 °C.

`N#Cc1ccc2oc(CCc3ccc(C(=O)O)cc3)cc2c1`: the melting point lay in the range of 234 to 235 °C.

`CCN(CC)c1ccc(/C=C/C(=O)CC(=O)/C=C/c2ccc(OC)c(O)c2)c(O)c1` returned a melting point of 101 to 108 °C.

`CCCCSCC(=O)c1cc2sc(=O)[nH]c2cc1Cl` had a melting point of 102 to 115 °C.

On to `Cc1nnc(C)c(-c2c(F)cc(F)cc2F)c1-c1cccs1`, for which the melting point is 100 to 102 °C.

Take `O=C(O)CC(O)(CC(=O)O)C(F)(F)F`: the melting point lay within 102 to 105 °C.

Regarding `Cc1ccc(C2CCCCC2)n1CC[C@H]1C[C@H](O)CC(=O)O1` (relative stereo), the melting point is 129 to 130 °C.

In the case of `C(=C\c1cc(/C=C/c2ccc3[nH]ccc3c2)n[nH]1)/c1ccc(OCc2ccccn2)cc1`, the melting point was in the range of 95 to 102 °C.

For the compound `CNS(=O)(=O)N1CCNC1=O`, the melting point was found to be 184 °C.

In turn, `CC(C)(C)C12COC(CCCCBr)(OC1)OC2` yielded a melting point of 111 to 115 °C.

Compound `O=C1CCC(N2Cc3c(OCc4ccc(Cn5cnc(C(F)(F)F)c5)cc4)cccc3C2=O)C(=O)N1` (centres undefined) registered a melting point of 148 to 150 °C.

`Cc1ccc(C(C)(CCCCC(=O)CCCCC(C)(C(=O)O)c2ccc(C)cc2)C(=O)O)cc1` (centres undefined): the melting point was 48 to 50 °C.

`COc1ccc(Cn2nc(-c3ccc(OC)cc3)c(-c3ccc(OC)cc3)cc2=O)cc1` showed a melting point of 171 to 172 °C.

`N#CC1(c2ccccc2)C2CC3CC(C2)CC1C3` (centres undefined): the melting point lay within 120 to 122 °C.

`O=C(O)COc1cc(Cl)c2c(c1)OCC(c1ccccc1)C2=O` (centres undefined) came in with a melting point of 171 to 173 °C.

Compound `Cc1c(-c2ccccc2)oc2c(OCCCCBr)cccc2c1=O` yielded a melting point of 91 to 92 °C.

As to `O=C(O)CCC(=O)N1CCN(c2ccncc2)CC1`, the melting point is 261 to 263 °C.

Turning to `CC1(C)C(C#CC(=O)OCC2CC2)C1C(=O)OC(C#N)c1cccc(Oc2ccccc2)c1` (centres undefined), the melting point worked out at 72 °C.

In turn, `CCOC(=O)c1cccc2c1Nc1ccc(C(=O)c3ccccc3)cc1N2C` showed a melting point of 139 to 141 °C.

In turn, `COC(=O)c1cncc(O)c1` showed a melting point of 186 to 187 °C.

`CCOC(=O)c1cc2c3ccccc3n(Cc3ccccc3)c2c(C)n1` yielded a melting point of 155 to 156 °C.

In the case of `NC(=O)c1ccnc(Oc2cccc(C(F)(F)F)c2)n1`, the melting point came out at 113 °C.

Take `OC(CN1CCN(Cc2ccccc2)CC1)Cn1c2ccc(Br)cc2c2cc(Br)ccc21` (centres undefined): the melting point was in the range of 70 to 75 °C.

As for `O=C(Nc1nc(C(Cl)(Cl)Cl)ns1)c1c(Cl)cccc1Cl`, the melting point is 209 °C.

Take `CCOc1ccc(C(=O)[C@H]2CC=CC[C@H]2C(=O)O)cc1OCC` (relative stereo): the melting point lay in the range of 125 to 127 °C.

For the compound `CN1N=CC=Cc2ccccc21`, the melting point was 190 to 192 °C.

`O=C(CCC(=O)N1CCC(c2ccc(Cl)cc2)CC1)c1ccc2c(c1)CNCCC2` showed a melting point of 122 to 124 °C.

`CS(=O)(=O)OCCN(CCOS(C)(=O)=O)c1ccc([N+](=O)[O-])c(C(=O)O)c1[N+](=O)[O-]` came in with a melting point of 200 to 210 °C.

The compound `CN(C(=O)c1cccc(Cn2cnc3ccccc32)c1)C1CCCCC1` registered a melting point of 99 to 101 °C.

`COCCc1nc2c(N)nc3ccccc3c2n1CCOCCS(C)(=O)=O` came in with a melting point of 142 to 144 °C.

Compound `O=C(Nc1cnccn1)N1CCN(c2nc(-c3cccc(F)c3)cs2)CC1` registered a melting point of 158 to 159 °C.

In turn, `CC(C)COC(=O)Sc1ccc(-c2ccccc2)cc1` had a melting point of 78 to 79 °C.

The compound `C=CCNc1nc(NCC=C)nc(N2CCN(C(=O)NCC(c3ccccc3)c3ccccc3)CC2)n1` returned a melting point of 90 to 92 °C.

In the case of `Cc1ccc(S(=O)(=O)NCCOCCO)cc1`, the melting point was in the range of 35 to 38 °C.

For `Cc1c(C(=O)Nc2ccc(N3CCC(N4CCOCC4)CC3)c(C#N)c2)cnn1-c1ccccc1Cl`, the melting point was 218 °C.

On to `NNc1cc2ccccc2[nH]1`, for which the melting point fell in the range of 165 to 167 °C.

`Nc1nc2ccccc2c2c1ncn2CCCCNC(=O)c1ccc(C(=O)c2ccccc2)cc1` displayed a melting point of 159 to 161 °C.

In turn, `CC(C)CCNC(Nc1cc(C(F)(F)F)cc(C(F)(F)F)c1)=C(C#N)C#N` yielded a melting point of 158 to 159 °C.

Regarding `COc1ccc2c(c1)OC[C@@H]1CCCN1C2=O`, the melting point was in the range of 104 to 106 °C.

With `CC(=O)NCC1CN(c2ccc(N3CCN(c4nnc(N)s4)C(F)C3)cc2)C(=O)O1` (centres undefined), the melting point lay in the range of 228 to 230 °C.

For the compound `Cc1[nH]cnc1CN1CCc2c(c3cccc4c3n2CCCC4)C1=O`, the melting point lay within 215 to 216 °C.

With `COC1(c2csc(S(=O)(=O)c3ccc(/C(C)=N/O)cc3)c2)CCOCC1`, the melting point fell in the range of 141 to 142 °C.

`O=C(Nc1ccc(C(=O)O)cc1)OCCCCC1c2ccccc2-c2ccccc21` registered a melting point of 146 to 149 °C.

In turn, `N#CNc1ccccc1I` showed a melting point of 117 to 118 °C.

Compound `C[C@]1(CN)COc2cccc(-c3ccccc3)c2O1` yielded a melting point of 130 to 133 °C.

In the case of `O=C(Nc1ccc(Cl)c(C(F)(F)F)c1)Nc1ccc(OCc2ccccc2)cc1O`, the melting point lay within 182 to 184 °C.

Consider `O=C(O)COc1ccc(-c2c3ccccc3cc3sc4ccccc4c23)cc1I`, for which the melting point lay within 248 to 249 °C.

Regarding `O=C(Cc1cccc2ccccc12)N(O)[C@H](CN1CCCC1)c1ccccc1`, the melting point was 81 to 83.5 °C.

`Cc1nn(C)c2[nH]c(=O)c3ccccc3c12` yielded a melting point above 310 °C.

`O=C(O)C1=Cc2ccc(O)cc2CC1` showed a melting point of 195 to 197 °C.

The compound `CCCOc1cc(NC(=O)C[C@H]2O[C@H](c3cccc(OC)c3OC)c3cc(Cl)ccc3N(CC(C)(C)CO)C2=O)cc2cc(C(=O)O)oc12` returned a melting point of 175 to 177 °C.

`Cc1c2ccccc2c(-c2cc(Br)c(O)c(Br)c2)c2c1sc1ccccc12` registered a melting point of 224 to 226 °C.

The compound `CC(C)(C)c1cc(C(=O)C(=O)O)cc(C(C)(C)C)c1O` displayed a melting point of 125 to 126 °C.

On to `COC(=O)C(Cc1ccc(Cl)cc1)NC(=O)C1CCC(CNC(=O)OC(C)(C)C)CC1` (centres undefined), for which the melting point was 178 to 179 °C.
